Data: patent US20030166622A1, “Vitamin D derivatives with acyloxy groups in the side chains, process for their production, and the use for the production of pharmaceutical agents” (Schering AG, priority 2001, published 2003)
Entries after “also recorded” stand apart in the source; their conditions may differ.

What was measured:
[1] = DNFB-induced allergic contact allergy in the mouse (DNFB-DTH); format: in vivo; conditions: for DR (Hypercalcemic threshold dose/ immunosuppressive threshold dose): therapeutic range, mouse, once daily intragastrically around sensitization, calcium level in urine as side-effect parameter; for activity in vivo (prevention of the formation of edemas): contact allergy in the mouse
From the text: 58, 179-204 (1999)]. The model of the dinitrofluorobenzene (DNFB)-induced allergic contact allergy in the mouse represents an inflammatory skin disease with the background of an inflammatory reaction of the delayed type (delayed type hypersensitivity; DTH). The inflammatory phase of the contact allergy is triggered by a multi-phase reaction. A repeated contact with the topically effective contact allergen DNFB (25 il of a 0.5% (w/v) DNFB solution in acetone/olive oil 4:1 [v/v] on the shaved abdomen with a surface area of about 10 cm^2 on test days 0. and 1.) triggers an immune reaction, which results in the sensitization of the animals against the specific agent, without “visible” symptoms occurring. Only after a sensitization time of 4-5 days, in which populations of DNFB-specific lymphocytes of “memory” type have formed in the draining lymph nodes, can a renewed contact (20 il of a 0.5% (w/v) DNFB solution in acetone/olive oil 4:1 [v/v]) trigger an inflammatory skin reaction with the contact allergen at any skin area (here: on both ears, treated surface area/ear about 2 cm^2). This second phase, which is also referred to as the trigger or “challenge,” ends in an eczematous lesion on the second contact site. The evaluation of the extent of the inflammatory reaction or the success of treatment is performed routinely 24 hours after the triggering, since at this time, the parameters that are to be analyzed (ear thickness and cell infiltration as a yardstick for the edema) have reached a plateau. The model of the DNFB-induced contact allergy allows the examination of the action of systemically or topically administered test substances with immunosuppressive/immunomodulating or inflammation-inhibiting properties. In the study on immunomodulating properties of calcitriol derivatives, the latter are administered once daily intragastrically in physiological common salt solution (0.9% NaCl) with an admixture of 0.085% Myrj 53) around the time of sensitization (beginning two days before and one day before sensitization, on the day of sensitization and on day 1 and 2 after sensitization). As side-effect parameters that are typical of vitamin D, the determination of the calcium level in the urine of the treated animals is used at the latest 24 hours after the last treatment with the substance. The calcium content is determined by flame-photometry. The significance of differences occurring between substance groups and controls as well as between test substance and reference substance are supported with suitable statistic processes. The therapeutic range of the test substances and calcitriol as a reference substance is indicated as a dose ratio DR (DR=factor of hypercalcemic threshold dose/immunosuppressive threshold dose).

HL 60 cells = assay: differentiation induction of HL 60 cells to macrophages (NBT reduction); format: cell-based, human; conditions: relative to calcitriol; 96 hours incubation
Procedure: The differentiation-stimulating action of calcitriol analogs is also detected quantitatively.
It is known in the literature [D. J. Mangelsdorf et al., J. Cell. Biol. 98, 391 (1984)] that the treatment of human leukemia cells (promyelocyte cell line HL 60) in vitro with calcitriol induces the differentiation of cells to macrophages.
HL 60 cells are cultivated in tissue culture medium (RPMI 10% fetal calf serum) at 37° C. in an atmosphere of 5% CO2 in air.
For substance testing, the cells are centrifuged off, and 2.0×10^5 cells/ml in phenol red-free tissue culture medium are taken up. The test substances are dissolved in ethanol and diluted to the desired concentration with tissue culture medium without phenol red. The dilution stages are mixed with the cell suspension at a ratio of 1:10, and 100 il each of this cell suspension that is mixed with substance is pipetted into an indentation of a 96-hole plate. For control, a cell suspension is mixed analogously with the solvent.
After incubation for 96 hours at 37° C. in 5% CO2 in air, 100 il of an NBT-TPA solution (nitro blue tetrazolium (NBT), final concentration in the batch of 1 mg/ml, tetradecanoyl phorbolmyristate-13-acetate (TPA), final concentration in the batch of 2×10^−7 mol/l) is pipetted into each indentation of the 96-hole plate in the cell suspension.
By incubation for 2 hours at 37° C. and 5% CO2 in air, NBT is reduced to insoluble formazan because of the intracellular oxygen radical release, stimulated by TPA, in the cells that are differentiated to macrophages.
To complete the reaction, the indentations of the 96-hole plate are suctioned off, and the cells are affixed to the bottom of the plate by adding methanol and dried after affixing. To dissolve the intracellular formazan crystals that are formed, 100 il of potassium hydroxide (2 mol/l) and 100 il of dimethyl sulfoxide are pipetted into each indentation and ultrasonically treated for 1 minute. The concentration of formazan is measured by spectrophotometry at 650 nm.
As a yardstick for the differentiation induction of HL 60 cells to macrophages, the concentration of formed formazan applies.

[2] = acute hypercalcemic action in rats (serum calcium after one-time subcutaneous administration); format: in vivo, rat; conditions: relative to calcitriol, male rats
Procedure: To determine the acute hypercalcemic action of various calcitriol derivatives, the test that is described below is carried out:
The action of control (solution base), reference substance (1,25-dihydroxy vitamin D3=calcitriol) and test substance is tested in each case after one-time subcutaneous administration in groups of 10 healthy male rats (140-170 g). During the testing time, the rats are kept in special cages to determine the excretion of water and mineral substances. Urine is collected in 2 fractions (0-16 hours and 16-22 hours). An oral dose of calcium (0.1 mmol of calcium in 6.5% alpha-hydroxypropyl cellulose, 5 ml/animal) replaces at 1600 hours the calcium intake that is lacking by food deprivation. At the end of the test, the animals are sacrificed by decapitation and exsanguinated to determine the serum-calcium values. For the primary screening test in vivo, an individual standard dose (200 ig/kg) is tested. For selected substances, the result is supported by establishing a dose-effect relation.
A hypercalcemic action is shown in serum-calcium level values that are higher than in the control.
The significance of differences occurring between substance groups and controls as well as between test substance and reference substance are supported with suitable statistical processes.

vitamin D receptor = target: T1, vitamin D receptor (Sus scrofa, UniProt A3RGC1); assay: calcitriol-receptor test (competition with 3H-calcitriol, protein extract from intestines of juvenile pigs); conditions: for KF (competition factor: concentration of test substance / reference substance at 50% competition): relative to unlabeled calcitriol, 3H-calcitriol 5x10^-10 mol/l, 2 hours at 4° C; for activity in vitro: result in words, summary of the in vitro tests of the table (calcitriol-receptor test and HL 60)
T1 sequence (A3RGC1 1-427): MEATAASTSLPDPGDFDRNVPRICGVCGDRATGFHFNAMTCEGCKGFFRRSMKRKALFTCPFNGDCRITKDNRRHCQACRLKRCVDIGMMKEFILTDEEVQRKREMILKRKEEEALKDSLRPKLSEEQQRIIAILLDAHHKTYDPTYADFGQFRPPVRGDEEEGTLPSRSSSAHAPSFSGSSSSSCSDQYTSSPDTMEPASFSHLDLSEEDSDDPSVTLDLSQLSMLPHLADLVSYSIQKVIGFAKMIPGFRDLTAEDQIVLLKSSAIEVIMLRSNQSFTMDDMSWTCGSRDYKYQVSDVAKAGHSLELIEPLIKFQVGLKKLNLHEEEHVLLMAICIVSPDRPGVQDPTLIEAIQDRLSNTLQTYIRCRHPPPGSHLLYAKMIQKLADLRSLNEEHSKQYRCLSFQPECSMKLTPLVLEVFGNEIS
Procedure: It is carried out using a protein extract from the intestines of juvenile pigs. […] To this end, 250 il of a charcoal-dextran suspension is fed to each test tube and incubated at 4° C. for 20 minutes. Then, the samples are centrifuged at 10,000 g for 5 minutes at 4° C. The supernatant is decanted and measured in a á-counter after 1 hour of equilibration in Picofluor 15™.
The competition curves that are obtained at various concentrations of test substance as well as of reference substance (unlabeled calcitriol) at constant concentration of the reference substance (^3H-calcitriol) are placed in relation to one another, and a competition factor (KF) is determined.
It is defined as a quotient of the concentrations of the respective test substance and the reference substance, which are necessary for 50% competition:
KF=Concentration of test substance at 50% competition
Concentration of reference substance at 50% competition

Q: For `C=C1C(=CC=C2CCCC3(C)C2CCC3C(C)C=CC(O)C2(c3ncc(CCCC)o3)CC2)CC(O)CC1O` [(5Z,7E,22E)-(1S,3R,24R)-25-(5-butyloxazole-2-yl)-26,27-cyclo-9,10-secocholesta-5,7,10(19),22-tetraene-1,3,24-triol, reference compound], which “DR (Hypercalcemic threshold dose/ immunosuppressive threshold dose)” value [1] is on record?
A: The value was 1,000.

Q: With `C=C1/C(=C\C=C2/CCC[C@]3(C)[C@@H]([C@H](C)/C=C/[C@@H](O)C4(c5ncc(CCC)o5)CC4)CC[C@@H]23)C[C@@H](O)C[C@@H]1O` [A, (5Z,7E,22E)-(1S,3R,24R)-25-(5-Propyloxazole-2-yl)-26,27-cyclo-9,10-secocholesta-5,7,10(19),22-tetraene-1,3,24-triol] as the molecule, how does the “DR (HL 60) (dose ratio test substance/reference substance for comparable semi-maximum actions)” value (HL 60 cells) read?
A: The value was 1.9.

Q: What about the “DR (Ca) (dose ratio for hypercalcemia, test substance dose/reference substance dose for comparable actions)” value [2] of the same molecule?
A: Its value is 300.

Q: What about the “KF (competition factor: concentration of test substance / reference substance at 50% competition)” value (vitamin D receptor) of the same molecule?
A: The value was 2.

Q: Which results are given for `C=C1/C(=C\C=C2/CCC[C@]3(C)[C@@H]([C@H](C)/C=C/[C@@H](O)C4(c5ncc(C)o5)CC4)CC[C@@H]23)C[C@@H](O)C[C@@H]1O` [B, (5Z,7E,22E)-(1S,3R,24R)-25-(5-Methyloxazole-2-yl)-26,27-cyclo-9,10-secocholesta-5,7,10(19),22-tetraene-1,3,24-triol]?
A: DR (HL 60) (dose ratio test substance/reference substance for comparable semi-maximum actions) (HL 60 cells): 3.4; DR (Ca) (dose ratio for hypercalcemia, test substance dose/reference substance dose for comparable actions) [2]: >300; KF (competition factor: concentration of test substance / reference substance at 50% competition) (vitamin D receptor): 2

Q: What does the source list for `C=C1C(=CC=C2CCCC3(C)C2CCC3C(C)C=CC(O)C2(c3ncc(CC)o3)CC2)CC(O)CC1O` [C, (5Z,7E,22E)-(1S,3R,24R)-25-(5-Ethyloxazole-2-yl)-26,27-cyclo-9,10-secocholesta-5,7,10(19),22-tetraene-1,3,24-triol]?
A: DR (HL 60) (dose ratio test substance/reference substance for comparable semi-maximum actions) (HL 60 cells): 1.3; DR (Ca) (dose ratio for hypercalcemia, test substance dose/reference substance dose for comparable actions) [2]: >300; KF (competition factor: concentration of test substance / reference substance at 50% competition) (vitamin D receptor): 3

Q: Which “DR (HL 60) (dose ratio test substance/reference substance for comparable semi-maximum actions)” value (HL 60 cells) does the source give for `C=C1/C(=C\C=C2/CCC[C@]3(C)[C@@H]([C@H](C)CCCC(C)(C)O)CC[C@@H]23)C[C@@H](O)C[C@@H]1O` [Calcitriol, 1,25-dihydroxy vitamin D3] here?
A: Its value is 1.

Q: And the “DR (Ca) (dose ratio for hypercalcemia, test substance dose/reference substance dose for comparable actions)” value [2]?
A: Its value is 1.

Q: And the “DR (Hypercalcemic threshold dose/ immunosuppressive threshold dose)” value [1]?
A: Its value is 1.

Q: For `C=C1/C(=C\C=C2/CCC[C@]3(C)[C@@H]([C@H](C)CC[C@H](OC(C)=O)C4(c5ncc(CCCC)o5)CC4)CC[C@@H]23)C[C@@H](O)C[C@@H]1O` [Compound 3a, (5Z,7E)-(1S,3R,24S)-24-Acetoxy-25-(5-butyloxazole-2-yl)-26,27-cyclo-9,10-secocholesta-5,7,10(19)-triene-1,3-diol], which “DR (HL 60) (dose ratio test substance/reference substance for comparable semi-maximum actions)” value (HL 60 cells) is on record?
A: The value was >170.

Q: And the “DR (Ca) (dose ratio for hypercalcemia, test substance dose/reference substance dose for comparable actions)” value [2]?
A: Its value is >1000.

Q: And the “activity in vivo (prevention of the formation of edemas)” value ([1]; result in words)?
A: Its value is “therapeutically active in vivo”.

Q: And the “KF (competition factor: concentration of test substance / reference substance at 50% competition)” value (vitamin D receptor)?
A: Its value is >100.

Q: What about the activity in vitro (vitamin D receptor) of the same molecule?
A: Its activity in vitro is “inactivity; also recorded: deficient activity”.

Q: For `C=C1/C(=C\C=C2/CCC[C@]3(C)[C@@H]([C@H](C)CC[C@@H](OC(C)=O)C4(c5ncc(CCCC)o5)CC4)CC[C@@H]23)C[C@@H](O)C[C@@H]1O` [Compound 3b, (5Z,7E)-(1S,3R,24R)-24-(Acetoxy)-25-(5-butyloxazole-2-yl)-26,27-cyclo-9,10-secocholesta-5,7,10(19)-triene-1,3-diol], which “DR (HL 60) (dose ratio test substance/reference substance for comparable semi-maximum actions)” value (HL 60 cells) is on record?
A: The value was >170.

Q: And the “DR (Ca) (dose ratio for hypercalcemia, test substance dose/reference substance dose for comparable actions)” value [2]?
A: The value was >1000.

Q: What about the “activity in vivo (prevention of the formation of edemas)” value ([1]; result in words) of the same molecule?
A: The value was “therapeutically active in vivo”.

Q: What about the “KF (competition factor: concentration of test substance / reference substance at 50% competition)” value (vitamin D receptor) of the same molecule?
A: Its value is >100.

Q: And the activity in vitro (vitamin D receptor)?
A: Its activity in vitro is “inactivity; also recorded: deficient activity”.

Q: Which results are given for `C=C1/C(=C\C=C2/CCC[C@]3(C)[C@@H]([C@H](C)CC[C@@H](OC(=O)C(C)(C)C)C4(c5ncc(CCCC)o5)CC4)CC[C@@H]23)C[C@@H](O)C[C@@H]1O` [Compound 5b]?
A: DR (HL 60) (dose ratio test substance/reference substance for comparable semi-maximum actions) (HL 60 cells): >170; DR (Ca) (dose ratio for hypercalcemia, test substance dose/reference substance dose for comparable actions) [2]: >1000; activity in vivo (prevention of the formation of edemas) ([1]; result in words): therapeutically active in vivo; DR (Hypercalcemic threshold dose/ immunosuppressive threshold dose) [1]: 20,000; KF (competition factor: concentration of test substance / reference substance at 50% competition) (vitamin D receptor): >100; activity in vitro (vitamin D receptor): inactivity; also recorded: deficient activity

Q: For `C=C1/C(=C\C=C2/CCC[C@]3(C)[C@@H]([C@H](C)CC[C@@H](OC(=O)NC)C4(c5ncc(CCCC)o5)CC4)CC[C@@H]23)C[C@@H](O)C[C@@H]1O` [Compound 11b, (5Z,7E)-(1S,3R,24R)-25-(5-Butyloxazole-2-yl)-24-[[(methylamino)-carbonyl]oxy]-26,27-cyclo-9,10-secocholesta-5,7,10(19)-triene-1,3-diol], which “therapeutic range (immunosuppressive threshold dose versus hypercalcemic threshold dose)” value ([1]; result in words, relative to compounds that have free hydroxy groups in the side chain) is on record?
A: Its value is “clearly improved”.

Q: What does the source list for `C=C1/C(=C\C=C2/CCC[C@]3(C)[C@@H]([C@H](C)/C=C/[C@@H](O)C4(c5ncc(CCCCC)o5)CC4)CC[C@@H]23)C[C@@H](O)C[C@@H]1O` [D, (5Z,7E,22E)-(1S,3R,24R)-25-(5-Pentyloxazole-2-yl)-26,27-cyclo-9,10-secocholesta-5,7,10(19),22-tetraene-1,3,24-triol]?
A: DR (HL 60) (dose ratio test substance/reference substance for comparable semi-maximum actions) (HL 60 cells): >100; DR (Ca) (dose ratio for hypercalcemia, test substance dose/reference substance dose for comparable actions) [2]: >300; KF (competition factor: concentration of test substance / reference substance at 50% competition) (vitamin D receptor): 4
